Source: patent publication US7601716B2, “Pyridopyrazines and derivatives thereof as ALK and c-Met inhibitors” (Cephalon, Inc., priority 2006, dated 2009)

Columns and labels:
[1] = target: T1, c-Met (cytoplasmic domain) (Homo sapiens, UniProt P08581); assay: c-Met Kinase Assay (ELISA/TRF, PLC-γ substrate); format: biochemical; conditions: 3 μM ATP (Km level); read-out: c-Met Kinase Inhibition (IC50)
T1 construct: Reactions were initiated with 30 ng/mL c-Met (cytoplasmic domain, Invitrogen Corporation #PV3143); purchased Invitrogen Corporation PV3143
T1 sequence (P08581 956-1390 limits assumed): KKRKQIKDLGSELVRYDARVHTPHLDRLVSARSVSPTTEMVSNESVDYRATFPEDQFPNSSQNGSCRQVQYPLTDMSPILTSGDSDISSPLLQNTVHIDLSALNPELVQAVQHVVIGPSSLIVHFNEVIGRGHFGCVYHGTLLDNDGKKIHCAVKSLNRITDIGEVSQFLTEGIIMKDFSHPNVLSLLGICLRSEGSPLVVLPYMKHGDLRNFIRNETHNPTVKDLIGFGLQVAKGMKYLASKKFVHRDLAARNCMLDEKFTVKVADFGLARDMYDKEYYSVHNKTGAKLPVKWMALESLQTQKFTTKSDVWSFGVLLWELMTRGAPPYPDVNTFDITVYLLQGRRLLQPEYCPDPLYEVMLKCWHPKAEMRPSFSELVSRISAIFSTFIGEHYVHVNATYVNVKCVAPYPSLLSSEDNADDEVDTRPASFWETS
In short: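 c-Met cytoplasmic domain (30 ng/mL) phosphorylates plate-coated GST–PLC-γ for 15 min at 37 °C. Phosphotyrosine detected with Eu-labeled PT66 antibody by time-resolved fluorescence. IC50 from variable-slope sigmoidal fit of % inhibition vs log concentration.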

[2] = target: baculovirus-expressed ALK (Homo sapiens, UniProt Q9UM73); assay: ALK Kinase Assay (ELISA/TRF, PLC-γ substrate); format: biochemical; conditions: read-out: ALK Kinase Inhibition (IC50); further: 1 µM ATP (Km level)
Sequence of baculovirus-expressed ALK (Q9UM73 19-1620): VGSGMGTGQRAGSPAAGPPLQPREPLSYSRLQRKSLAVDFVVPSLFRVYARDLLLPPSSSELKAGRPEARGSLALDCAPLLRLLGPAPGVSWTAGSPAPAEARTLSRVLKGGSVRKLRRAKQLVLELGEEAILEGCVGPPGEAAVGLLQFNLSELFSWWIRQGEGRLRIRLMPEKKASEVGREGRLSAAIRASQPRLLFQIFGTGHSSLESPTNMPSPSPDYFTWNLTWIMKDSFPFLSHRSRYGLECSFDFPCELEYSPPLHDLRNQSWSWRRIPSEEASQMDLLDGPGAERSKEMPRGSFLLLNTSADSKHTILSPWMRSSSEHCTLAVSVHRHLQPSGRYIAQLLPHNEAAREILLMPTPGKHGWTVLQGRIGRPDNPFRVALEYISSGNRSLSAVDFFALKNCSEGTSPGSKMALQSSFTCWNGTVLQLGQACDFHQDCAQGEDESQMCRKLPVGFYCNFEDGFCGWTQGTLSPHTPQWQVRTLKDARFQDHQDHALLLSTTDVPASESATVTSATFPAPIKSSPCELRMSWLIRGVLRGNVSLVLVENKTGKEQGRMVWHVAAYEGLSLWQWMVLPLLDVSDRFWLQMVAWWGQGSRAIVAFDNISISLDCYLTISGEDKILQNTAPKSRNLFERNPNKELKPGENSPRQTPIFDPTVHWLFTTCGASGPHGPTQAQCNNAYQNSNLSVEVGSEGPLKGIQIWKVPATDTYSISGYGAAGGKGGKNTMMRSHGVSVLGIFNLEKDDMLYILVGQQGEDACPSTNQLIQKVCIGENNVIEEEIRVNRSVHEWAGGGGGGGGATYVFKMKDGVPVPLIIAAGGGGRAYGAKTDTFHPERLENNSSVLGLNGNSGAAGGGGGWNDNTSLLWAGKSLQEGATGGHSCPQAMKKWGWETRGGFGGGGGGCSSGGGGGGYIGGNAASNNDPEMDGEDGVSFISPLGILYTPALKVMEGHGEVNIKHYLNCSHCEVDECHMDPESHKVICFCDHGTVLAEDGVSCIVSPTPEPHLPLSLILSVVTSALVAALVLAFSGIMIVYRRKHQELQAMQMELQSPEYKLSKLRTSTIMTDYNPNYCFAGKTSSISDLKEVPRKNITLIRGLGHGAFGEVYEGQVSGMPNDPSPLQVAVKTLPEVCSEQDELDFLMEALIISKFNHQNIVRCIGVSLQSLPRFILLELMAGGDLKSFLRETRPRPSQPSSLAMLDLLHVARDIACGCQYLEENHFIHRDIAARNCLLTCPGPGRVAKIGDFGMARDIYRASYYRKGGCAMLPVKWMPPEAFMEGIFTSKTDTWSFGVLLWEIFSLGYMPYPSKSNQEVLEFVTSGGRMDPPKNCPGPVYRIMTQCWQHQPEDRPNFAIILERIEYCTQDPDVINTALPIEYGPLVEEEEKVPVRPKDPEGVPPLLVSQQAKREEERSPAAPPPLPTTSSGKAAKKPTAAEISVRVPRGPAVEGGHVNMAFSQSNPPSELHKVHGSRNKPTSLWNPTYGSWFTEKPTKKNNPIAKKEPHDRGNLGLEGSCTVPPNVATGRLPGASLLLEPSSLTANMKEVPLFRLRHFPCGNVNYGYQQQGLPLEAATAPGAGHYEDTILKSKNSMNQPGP
In short: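 Plates coated with GST-PLC-γ substrate (10 µg/mL in TBS), then reaction started with 30 ng/ml baculovirus-expressed ALK, 15 min at 37 °C. Phosphotyrosine detected by Eu-labeled PT66 antibody and time-resolved fluorescence. IC50 from variable-slope sigmoidal fit of percent inhibition versus log concentration.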

NPM-ALK = target: T2, NPM-ALK (Homo sapiens, UniProt Q9UM73); assay: ALK Cellular Assay (phospho-NPM-ALK immunoblot / ALK tyrosine phosphorylation ELISA); format: cell-based
T2 construct: a fusion protein consisting of nucleophosmin (NMP) and the intracellular domain of ALK; the other entry of the earlier key: NPM1 (P06748, Nucleophosmin)
T2 sequence (Q9UM73 with tags, fused parts or gaps): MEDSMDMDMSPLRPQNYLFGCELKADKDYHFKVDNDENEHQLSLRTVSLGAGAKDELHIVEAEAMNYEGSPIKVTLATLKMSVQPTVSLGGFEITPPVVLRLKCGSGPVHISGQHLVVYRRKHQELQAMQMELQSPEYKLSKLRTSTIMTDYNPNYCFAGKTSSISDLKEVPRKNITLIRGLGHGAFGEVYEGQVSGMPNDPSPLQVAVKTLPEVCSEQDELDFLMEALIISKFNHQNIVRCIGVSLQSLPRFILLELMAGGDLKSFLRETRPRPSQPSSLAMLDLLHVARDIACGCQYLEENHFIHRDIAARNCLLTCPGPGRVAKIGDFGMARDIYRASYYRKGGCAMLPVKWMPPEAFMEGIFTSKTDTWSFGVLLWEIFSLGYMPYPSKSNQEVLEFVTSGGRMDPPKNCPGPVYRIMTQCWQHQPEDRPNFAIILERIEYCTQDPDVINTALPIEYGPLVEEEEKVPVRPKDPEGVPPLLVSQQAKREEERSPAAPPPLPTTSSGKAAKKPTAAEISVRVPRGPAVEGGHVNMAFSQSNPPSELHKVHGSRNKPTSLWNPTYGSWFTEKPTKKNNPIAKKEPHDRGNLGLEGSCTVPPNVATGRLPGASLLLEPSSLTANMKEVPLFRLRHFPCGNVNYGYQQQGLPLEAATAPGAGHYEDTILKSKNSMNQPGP
Protocol: Immunoblotting of phospho-NPM-ALK and total NPM-ALK from cell lysates was carried out according to the protocols provided by the antibody suppliers. In brief, after treatment of Example compounds, cells were lysed in Frak lysis buffer [10 mM Tris, pH 7.5, 1% Triton X-100, 50 mM sodium chloride, 20 mM sodium fluoride, 2 mM sodium pyrophosphate, 0.1% BSA, plus freshly prepared 1 mM activated sodium vanadate, 1 mM dithiothreitol (#165680050, ARCOS Organics, Geel, Belgium), and 1 mM PMSF (#837091, Boehringer Mannheim Biochemicals, Indianapolis, Ind.), protease inhibitors cocktail III (#539134-1Set, Calbiochem, 1:100 dilution)]. After brief sonication, the lysates were cleared by centrifugation, mixed with sample buffer and subjected to SDS-PAGE. Following transfer to membranes, the membranes were blotted with either rabbit phospho-NPM-ALK(Y664) (Cat^#3341) or ALK antibody (Cat^#3342) from Cell Signaling Technology (Beverly, Mass.), and then the HRP-conjugated goat anti-rabbit antibodies (Santa Cruz, Calif.) after washed in TBS/0.2% Tween-20. The protein bands were visualized with ECL Western Blotting detection reagents (RPN2106, Amersham Biosciences, Buckinghamshire, UK) and quantitated with gel-pro analyzer 3.1 software.
To measure ALK tyrosine phosphorylation in cells with an ELISA assay, fluoronunc plates (Cat^#437796, Nalge Nunc, Rochester, N.Y.) were pre-coated with goat anti-mouse IgG, and incubated with the capture mouse ALK antibody (Cat^#35-4300, Zymed, Seattle, Wash.) diluted 1:1000 in Superblock (Pierce, Rockford, Ill.). Following blocking, cell lysates were added to plates and incubated overnight at 4° C. Plates were incubated with the detecting antibody, anti-phospho-ALK (Y664) (Cell Signaling Technology), diluted at 1:2000, followed by incubation with goat anti-rabbit-IgG alkaline phosphatase to amplify the detection. Wells were exposed to the fluorogenic substrate 4-MeUP (#3368-04-5, Calbiochem) and the signal quantified using a CytoFluor® (series 4000) Fluorescence Multi-Well Plate Reader (Applied Biosystems, Foster City, Calif.).

[3] = target: T3, c-Met (phospho-c-Met) in HT29 cells (Homo sapiens, UniProt P08581); assay: c-Met Cellular Activity/Autophosphorylation Assay, HT29 cells; format: cell-based; conditions: for inhibition at 1 µM: HT-29, 1 μM compound, read-out: c-Met autophosphorylation inhibition score, HT29 Cells (1 μM); for inhibition at 3 µM: HT-29, 3 μM compound, read-out: c-Met autophosphorylation inhibition score, HT29 Cells (3 μM)
T3 construct: endogenous in cells; host or cells: HT29, A549 (HGF-stimulated), GTL-16
Protocol: (§1) HT29 and GTL-16 cells were serum starved for one hour in media containing 0.05% BSA and varying concentrations of Example compounds (1-10 μM). A549 cells were serum starved overnight in media containing 0.05% BSA then treated for one hour with Example compounds followed by a 15 minute stimulation with 50 ng/mL HGF (Peprotech, Rocky Hill, N.J.), respectively. Samples were resolved by electrophoresis on a 3-8% Tris-Acetate gel (40 ma/gel) and then transferred to a nitrocellulose membrane. Membranes were blocked for one hour at room temperature in Odyssey Blocking Buffer (Licor #927-40000) diluted 1:1 with 1×TBS. Membranes were then co-incubated overnight at 4° C. with primary antibodies [total Met (Cell Signaling, #3127) and Phospho-Met (Biosource, #44-888G) 1:1000 each in Odyssey Blocking Buffer diluted 1:1 with 1×TBS-T 0.05%]. The next day, membranes were washed and co-incubated with secondary antibodies [Goat anti mouse IRDye800 (Rockland, #610-132-121) and Goat anti rabbit Alexa fluor 700 (Molecular Probes, #A21038) 1:10,000] in Odyssey Blocking Buffer diluted 1:1 with 1×TBS-T 0.05% for one hour at room temperature protected from light. Blots were then washed and read on the Odyssey Infrared Imager. Total c-Met signal was visualized at 800 nm detection and phospho-c-Met signal was visualized at 700 nm detection.

[4] = target: T4, c-Met (phospho-c-Met) in A549 cells (Homo sapiens, UniProt P08581); assay: c-Met Cellular Activity/Autophosphorylation Assay, A549 cells (HGF stimulated); format: cell-based; conditions: 50 ng/mL HGF; for inhibition at 1 µM: 1 μM compound, read-out: c-Met autophosphorylation inhibition score, A549 Cells (1 μM); for inhibition at 3 µM: 3 μM compound, read-out: c-Met autophosphorylation inhibition score, A549 Cells (3 μM)
T4 construct: endogenous in cells; host or cells: HT29, A549 (HGF-stimulated), GTL-16
T4 sequence (P08581 25-1390): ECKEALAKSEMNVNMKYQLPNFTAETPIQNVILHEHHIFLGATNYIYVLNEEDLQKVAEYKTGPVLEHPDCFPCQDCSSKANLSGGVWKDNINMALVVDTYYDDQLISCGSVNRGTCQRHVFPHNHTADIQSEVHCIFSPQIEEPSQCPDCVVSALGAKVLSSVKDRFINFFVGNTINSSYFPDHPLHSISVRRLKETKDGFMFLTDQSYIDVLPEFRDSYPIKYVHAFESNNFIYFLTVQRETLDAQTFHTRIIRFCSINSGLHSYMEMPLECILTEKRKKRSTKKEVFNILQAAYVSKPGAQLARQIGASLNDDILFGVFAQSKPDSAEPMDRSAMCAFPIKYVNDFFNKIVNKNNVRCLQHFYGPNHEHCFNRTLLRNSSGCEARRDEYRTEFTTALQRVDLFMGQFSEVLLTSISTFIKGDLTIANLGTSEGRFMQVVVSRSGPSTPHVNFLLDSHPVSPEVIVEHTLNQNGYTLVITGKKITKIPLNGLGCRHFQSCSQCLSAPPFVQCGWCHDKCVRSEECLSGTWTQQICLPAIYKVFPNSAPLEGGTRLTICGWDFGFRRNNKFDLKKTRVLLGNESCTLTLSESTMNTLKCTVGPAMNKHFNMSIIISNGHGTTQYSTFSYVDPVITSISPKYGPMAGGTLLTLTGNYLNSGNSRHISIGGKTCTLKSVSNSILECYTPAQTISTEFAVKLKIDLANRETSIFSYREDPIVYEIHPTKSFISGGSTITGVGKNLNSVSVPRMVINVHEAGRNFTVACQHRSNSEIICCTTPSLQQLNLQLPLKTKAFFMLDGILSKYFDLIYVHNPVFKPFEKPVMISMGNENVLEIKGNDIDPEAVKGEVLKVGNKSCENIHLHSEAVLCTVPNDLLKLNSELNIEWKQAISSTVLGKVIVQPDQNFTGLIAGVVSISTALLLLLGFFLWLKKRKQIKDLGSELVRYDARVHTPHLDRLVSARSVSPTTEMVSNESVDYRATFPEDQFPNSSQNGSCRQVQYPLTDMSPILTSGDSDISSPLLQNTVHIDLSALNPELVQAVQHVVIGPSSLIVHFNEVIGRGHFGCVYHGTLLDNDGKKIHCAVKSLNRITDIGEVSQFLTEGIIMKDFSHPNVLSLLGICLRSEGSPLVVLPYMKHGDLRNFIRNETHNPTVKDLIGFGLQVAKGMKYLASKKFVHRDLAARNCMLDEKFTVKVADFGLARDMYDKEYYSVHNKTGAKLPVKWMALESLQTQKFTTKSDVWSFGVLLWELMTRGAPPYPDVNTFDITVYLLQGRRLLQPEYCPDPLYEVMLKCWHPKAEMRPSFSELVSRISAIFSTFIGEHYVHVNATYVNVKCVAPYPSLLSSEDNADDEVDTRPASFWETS
Protocol: as §1

IC50 [1]	IC50 [2]	IC50 (NPM-ALK)	melting point	inhibition at 1 µM [3]	inhibition at 3 µM [3]	inhibition at 1 µM [4]	inhibition at 3 µM [4]	inhibition at 1 µM (NPM-ALK; NPM-ALK, 1 μM compound, read-out: ALK Cellular Activity Inhibition Score at 1 μM)	Compound
1000 to 10000 nM	< 100 nM	≤ 250 nM	202 to 204 °C						O=C(c1ccc(-c2cnc3c(c2)N(Cc2cc(F)ccc2F)CCN3)cc1)N1CCC(N2CCCC2)CC1 [Example 66, {4-[1-(2,5-Difluorobenzyl)-1,2,3,4-tetrahydropyrido[2,3-b]pyrazin-7-yl]phenyl}-(4-(pyrrolidin-1-yl)piperidin-1-yl)methanone]
100 to 1000 nM	< 100 nM	≤ 250 nM		0 to 25%	0 to 25%	0 to 25%	0 to 25%		O=C(c1ccc(-c2cnc3c(c2)N(Cc2c(F)ccc(F)c2Cl)CCN3)cc1)N1CCC[C@H]1CN1CCCC1 [Example 100, {4-[1-(2-Chloro-3,6-difluorobenzyl)-1,2,3,4-tetrahydropyrido[2,3-b]pyrazin-7-yl]phenyl}-((S)-2-((pyrrolidin-1-yl)methyl)pyrrolidin-1-yl)methanone]
1000 to 10000 nM	< 100 nM	≤ 250 nM	194 to 195 °C						CN1CCN(c2ncc(-c3cnc4c(c3)N(Cc3c(F)ccc(F)c3Cl)CCN4)cn2)CC1 [Example 106, 1-(2-Chloro-3,6-difluorobenzyl)-7-[2-(4-methylpiperazin-1-yl)-pyrimidin-5-yl]-1,2,3,4-tetrahydropyrido[2,3-b]pyrazine]
1000 to 10000 nM	< 100 nM	≤ 250 nM		0 to 25%	0 to 25%				O=C(c1ccc(-c2cnc3c(c2)N(Cc2cc(Cl)ccc2C(F)(F)F)CCN3)cc1)N1CCC(N2CCCC2)CC1 [Example 117, {4-[1-(5-Chloro-2-trifluoromethylbenzyl)-1,2,3,4-tetrahydropyrido[2,3-b]pyrazin-7-yl]phenyl}-(4-(pyrrolidin-1-yl)piperidin-1-yl)methanone]
1000 to 10000 nM	100 to 1000 nM		188 °C					51 to 75%	O=C1CNc2ncc(-c3ccc(C(=O)N4CCC[C@H]4CN4CCCC4)cc3)cc2N1Cc1c(Cl)cccc1Cl [Example 141, S-1-(2,6-Dichlorobenzyl)-7-[4-((2-pyrrolidin-1-yl)methylpyrrolidine-1-carbonyl)phenyl]-3,4-dihydro-1H-pyrido[2,3-b]pyrazin-2-one]
100 to 1000 nM	< 100 nM	251 to 500 nM	> 200 °C						O=C(c1ccc(-c2cnc3c(c2)N(Cc2cc(Cl)ccc2Cl)C(=O)CN3)cc1)N1CCC(N2CCCC2)CC1 [Example 156, 1-(2,5-Dichlorobenzyl)-7-[4-(4-(pyrrolidin-1-yl)piperidine-1-carbonyl)phenyl]-3,4-dihydro-1H-pyrido[2,3-b]pyrazin-2-one]
1000 to 10000 nM	< 100 nM	251 to 500 nM		0 to 25%	0 to 25%	0 to 25%	0 to 25%		O=C(c1ccc(-c2cnc3c(c2)N(Cc2cc(Cl)ccc2Cl)CCN3)cc1)N1CCC[C@H]1CN1CCCC1 [Example 159, S-{4-[1-(2,5-Dichlorobenzyl)-1,2,3,4-tetrahydropyrido[2,3-b]pyrazin-7-yl]phenyl}-{2-[(pyrrolidin-1-yl)methyl]pyrrolidin-1-yl}methanone]
100 to 1000 nM	< 100 nM	≤ 250 nM		26 to 50%	26 to 50%	0 to 25%	0 to 25%		O=C(c1ccc(-c2cnc3c(c2)N(Cc2cc(Cl)ccc2Cl)CCN3)cc1)N1CCC(N2CCCC2)CC1 [Example 160, {4-[1-(2,5-Dichlorobenzyl)-1,2,3,4-tetrahydropyrido[2,3-b]pyrazin-7-yl]phenyl}-(4-(pyrrolidin-1-yl)piperidin-1-yl)methanone]
100 to 1000 nM	< 100 nM	751 to 1000 nM		0 to 25%	26 to 50%	0 to 25%	0 to 25%		O=C(c1ccc(-c2cnc3c(c2)N(Cc2c(Cl)cccc2Cl)CCN3)cc1)N1CCC(N2CCCC2)CC1 [Example 163, {4-[1-(2,6-Dichlorobenzyl)-1,2,3,4-tetrahydropyrido[2,3-b]pyrazin-7-yl]phenyl}-(4-(pyrrolidin-1-yl)piperidin-1-yl)methanone]
1000 to 10000 nM	< 100 nM	251 to 500 nM		0 to 25%	0 to 25%	0 to 25%	0 to 25%		O=C(c1ccc(-c2cnc3c(c2)N(Cc2c(Cl)cccc2Cl)CCN3)cc1)N1CCC[C@H]1CN1CCCC1 [Example 164, {4-[1-(2,6-Dichlorobenzyl)-1,2,3,4-tetrahydropyrido[2,3-b]pyrazin-7-yl]phenyl}-{2-[(pyrrolidin-1-yl)methyl]pyrrolidin-1-yl}methanone]
100 to 1000 nM	< 100 nM	501 to 750 nM				0 to 25%	0 to 25%		CN1CCN(c2cc(-c3cnc4c(c3)N(Cc3c(F)ccc(F)c3Cl)CCN4)ccn2)CC1 [Example 190, 1-(2-Chloro-3,6-difluorobenzyl)-7-[2-(4-methylpiperazin-1-yl)pyridin-4-yl]-1,2,3,4-tetrahydropyrido[2,3-b]pyrazine]
100 to 1000 nM	< 100 nM	≤ 250 nM	189 °C						FC(F)(F)c1ccc(Cl)cc1CN1CCNc2ncc(-c3ccnc(N4CCNCC4)c3)cc21 [Example 198, 1-[5-Chloro-2-(trifluoromethyl)benzyl]-7-(2-piperazin-1-yl-pyridin-4-yl)-1,2,3,4-tetrahydro-pyrido[2,3-b]pyrazine]
1000 to 10000 nM	< 100 nM	≤ 250 nM	241 °C						CC(=O)N1CCN(c2cc(-c3cnc4c(c3)N(Cc3cc(Cl)ccc3C(F)(F)F)CCN4)ccn2)CC1 [Example 199, 1-[4-(4-{1-[5-Chloro-2-(trifluoromethyl)benzyl]-1,2,3,4-tetrahydro-pyrido[2,3-b]pyrazin-7-yl}pyridin-2-yl)piperazin-1-yl]ethanone]
1000 to 10000 nM	100 to 1000 nM	751 to 1000 nM	271 °C						FC(F)(F)c1ccc(Cl)cc1CN1CCNc2ncc(-c3cn[nH]c3)cc21 [Example 200, 1-[5-Chloro-2-(trifluoromethyl)benzyl]-7-(1H-pyrazol-4-yl)-1,2,3,4-tetrahydro-pyrido[2,3-b]pyrazine]
